Results taken from ChEMBL document CHEMBL1141028, “Novel NGF-potentiating diterpenoids from a Brazilian medicinal plant, Ptychopetalum olacoides” (Bioorg Med Chem Lett, 2009).
Calls of active or inactive are those of the source. The calls are words filed in the database; no cut-off is given here.

Assays:
[1] = tested on: PC-12; assay: Enhancement of neurite length extending from cell bodies in NGF-mediated rat PC12 cells at 1 uM after 4 days; type: functional
[2] = tested on: PC-12; assay: Enhancement of neurite length extending from cell bodies in NGF-mediated rat PC12 cells after 4 days relative to control; type: functional, cell-based
[3] = tested on: PC-12; assay: Enhancement of NGF-induced neurite outgrowth in rat PC12 cells assessed as morphological changes after 4 days by phase-contrast microscopy; type: functional, cell-based
[4] = tested on: PC-12; assay: Enhancement of neurite length extending from cell bodies in NGF-mediated rat PC12 cells at 0.1 uM after 4 days; type: functional
[5] = tested on: PC-12; assay: Enhancement of neurite length extending from cell bodies in NGF-mediated rat PC12 cells at 30 uM after 4 days; type: functional
[6] = tested on: PC-12; assay: Enhancement of neurite length extending from cell bodies in NGF-mediated rat PC12 cells at 50 uM after 4 days; type: functional
[7] = tested on: PC-12; assay: Enhancement of neurite outgrowth in rat PC12 cells assessed as morphological changes after 4 days by phase-contrast microscopy in absence of NGF; type: functional, cell-based
[8] = tested on: PC-12; assay: Enhancement of neurite length extending from cell bodies in NGF-mediated rat PC12 cells at 10 uM after 4 days; type: functional
[9] = tested on: PC-12; assay: Enhancement of NGF-induced neurite outgrowth in rat PC12 cells assessed as morphological changes at 0.1 to 50 uM after 4 days by phase-contrast microscopy; type: functional, cell-based
[10] = tested on: PC-12; assay: Enhancement of neurite length extending from cell bodies in NGF-mediated rat PC12 cells at 0.1 to 50 uM after 4 days; type: functional, cell-based
[11] = tested on: PC-12; assay: Cytotoxicity against rat PC12 cells at 50 uM; type: cell-based; conditions: pc-12, 50 µM

Compound: CC1=CCC[C@@H]2[C@@](C)(CCc3ccoc3)[C@H](C)[C@H](O)[C@H](O)[C@@]12C
- Activity [1]: 115.8 um
- Activity [2]: Dose-dependent effect
- Activity [3]: Dose-dependent effect
- Activity [4]: 104 um
- Activity [5]: 201.5 um
- Activity [6]: 205.3 um
- Activity [7]: inactive
- Activity [8]: 173.1 um

Compound: CC1=CCC[C@@H]2[C@@](C)(CCC3=CC(=O)OC3)[C@H](C)[C@H](O)C[C@@]12C
- Activity [9]: inactive
- Activity [10]: inactive
- Activity [7]: inactive

Compound: CC1=CCC[C@@H]2[C@@](C)(CCc3ccoc3)[C@H](C)[C@@H]3OC(C)(C)O[C@@H]3[C@@]12C
- Activity [10]: inactive

Compound: CC1=CCC[C@@H]2[C@@](CO)(CCc3ccoc3)[C@H](C)[C@H](O)C[C@@]12C
- Activity [1]: 101.7 um
- Activity [3]: Dose-dependent effect
- Activity [4]: 95.3 um
- Activity [11]: Toxic
- Activity [5]: 236.3 um
- Activity [7]: inactive
- Activity [8]: 106.5 um

Compound: COC1C=C(CC[C@@]2(C)[C@H](C)[C@H](O)[C@H](O)[C@@]3(C)C(C)=CCC[C@H]23)C(=O)O1 (some centres not stated)
- Activity [9]: inactive
- Activity [10]: inactive
- Activity [7]: inactive
